Reference: patent US9938292B2 (GUANGDONG ZHONGSHENG PHARMACEUTICAL CO., LTD, priority 2014, dated 2018)

tested on: Hedgehog signaling pathway; assay: Gli-Luc luciferase reporter gene assay in C3H10T1/2/Gli-Luc cells under Shh-N stimulation; type: cell-based; conditions: 24 h, luciferase RLU, read-out: biological activity: IC50 of the inhibitory activities of compounds on the hedgehog pathway
From the text: The luciferase (Gli-Luc) reporter gene with Gli response element was transfected into C3H10T1/2 cells, under Shh-N stimulation conditions, determine the Hedgehog signaling pathway inhibitors through the detection of gene expression in cell activity report. In this study, we evaluated the inhibitory effects of compounds on Hedgehog signaling pathway in the IC50 value of the compound as an index.
Cell lines: C3H10T1/2/Gli-Luc stable cell line • C3H10T1/2/Gli-Luc Cell culture medium (DMEM/high glucose HyClone, #SH30022.01B; 10% serum Hyclone, #SV30087; 0.4% Hygromycin B Roche, #13398200) • 0.25% Trypsin-EDTA (Gibco, #25200)
Shh-N, HEK293/SHH-N stable cell culture supernatant
Inoculate the logarithmic growth phase of C3H10T1/2/Gli-Luc cells into a 96-well culture plate with 20000 cells per well, cells were cultured in a 37° C., 5% CO2 incubator overnight. The next day, the compounds were diluted in the following ways: the positive compound GDC0449 (1 mM) and the compounds (1 mM) to be measured were serially diluted to 7 concentrations by DMSO according to 1:3 and 1:10 respectively, the eighth is for DMSO control, and then diluted with fresh medium 100 times. The medium of the cells cultured overnight was removed, 80 μL fresh culture medium was added per well, then 20 μL gradiently diluted positive compound and compounds to be measured and 100 μL 30 nM Shh-N containing conditioned medium were added, each concentration repeated 2 wells, at the same time, positive and negative reference well were set (i.e. Shh Ctrl: 80 μL fresh medium+20 μL 1% DMSO containing medium+100 μL 30 nM Shh-N containing conditioned medium; Unstimulated Ctrl: 180 μL fresh medium+20 μL 1% DMSO containing medium), cells were cultured in the incubator for further 24 h.
Intracellular luciferase activity detection: take the cells out of 96-well plate, discard the culture medium, the cells were washed with PBS twice, then each well added with 20 μL lysate (Promega E1531), oscillate pyrolysis at room temperature for 30 min. 5 μL cell lysates were transferred to 384-well plate (Greiner 781074), then each well was added with 25 μL luciferase reaction liquid (Promega E1501), after rapid mixed, immediately placed into the VarioSkan Flash multi-function reading instrument to read the relative light units (RLU) value.
Data analysis: using Prism's GraphPad 5 for data analysis. RLU reading to the logarithmic mapping of compound concentration on behalf of luciferase activity, and then curve fitting using the following equation to give IC50 value, Y (RLU)=minimum+(maximum−minimum)/(1+10^(log of compound concentration−Log IC50)).

Row | IC50 | Compound
1 | ≤ 50 nM | CCC(=O)N1[C@H](C)CN(c2ccc(NC(=O)c3cnc4c(-c5ccc(C#N)cc5)cccc4c3C3CC3)cn2)C[C@@H]1C [Embodiment 246]

same assay, conditions: Mus musculus, C3H 10T1/2, 24 h, luciferase RLU, read-out: biological activity: IC50 of the inhibitory activities of compounds on the hedgehog pathway

Row | IC50 | Compound
2 | 50 to 100 nM | COc1c(-c2ccc(N3C[C@@H](C)O[C@@H](C)C3)cc2)cnc2c(-c3ccc(C(F)(F)F)nc3)cccc12 [Embodiment 106]
3 | 100 to 500 nM | C[C@@H]1CN(c2ccc(-c3cnc4c(-c5ccc(C#N)cc5)cncc4c3Cl)cc2)C[C@H](C)O1 [Embodiment 153, 4-(4-chloro-3-(4-((2S,6R)-2,6-dimethylmorpholino)phenyl)-1,6-naphthyridin-8-yl) benzonitrile]
4 | 100 to 500 nM | COc1c(N2CCN(c3cc(C)nc(C)c3)CC2)cnc2c(-c3ccc(C#N)cc3)cccc12 [Embodiment 217, 4-(3-(4-(2,6-dimethylpyridin-4-yl)piperazin-1-yl)-4-methoxyquinolin-8-yl)benzonitrile]
5 | 100 to 500 nM | COc1c(N2CC(N3C[C@@H](C)O[C@@H](C)C3)C2)cnc2c(-c3ccc(C#N)cc3)cccc12 [Embodiment 228, 4-(3-(3-(2,6-dimethylmorpholino-4-yl)azetidin-1-yl)-4-methoxyquinolin-8-yl) benzonitrile]
6 | ≤ 50 nM | COc1c(-c2ccc(N3C[C@@H](C)N(C(=O)c4cccnc4)[C@@H](C)C3)cc2)cnc2c(-c3ccc(C#N)cc3)cccc12 [Embodiment 200]
7 | 100 to 500 nM | COc1c(-c2ccc(N3C[C@@H](C)O[C@@H](C)C3)cc2)cnc2c(-c3ccc(OC(F)(F)F)cc3)cc(F)cc12 [Embodiment 137]
8 | 50 to 100 nM | C[C@@H]1CN(c2ccc(-c3cnc4c(-c5ccc(C#N)cc5)cccc4c3C3CCC3)cn2)C[C@H](C)O1 [Embodiment 259, 4-(4-cyclobutyl-3-(6-((2S,6R)-2,6-dimethylmorpholino)pyridin-3-yl)quinolin-8-yl) benzonitrile]
9 | ≤ 50 nM | COC(=O)N1C(C)CN(c2ccc(-n3cc(C)c4c(-c5ccc(C#N)cc5)cccc4c3=O)cc2)CC1C (stereo not shown) [Embodiment 28]
10 | ≤ 50 nM | COc1c(-c2ccc(N3C[C@@H](C)O[C@H](C)C3)cc2)cnc2c(-c3ccc(C#N)cc3)cccc12 [Embodiment 112]
11 | 100 to 500 nM | CCC(=O)N1CCN(c2ccc(-n3cc(C)c4c(-c5ccc(C#N)cc5)cccc4c3=O)cc2)CC1c1ccccc1 (stereo not shown) [Embodiment 18]
12 | 100 to 500 nM | COc1c(NC(=O)c2ccc(N3C[C@@H](C)O[C@@H](C)C3)nc2)cnc2c(-c3ccc(C#N)cc3)cccc12 [Embodiment 241, N-(8-(4-cyanophenyl)-4-methoxyquinolin-3-yl)-6-(2,6-dimethylmorpholino-4-yl) nicotinamide]
13 | 100 to 500 nM | N#Cc1ccc(-c2cccc3c(C4CC4)c(N4CCN(c5cc[nH]c(=O)c5)CC4)cnc23)cc1 [Embodiment 271, 4-(4-cyclopropyl-3-(4-(2-oxo-1,2-dihydropyridin-4-yl)piperazin-1-yl)quinolin-8-yl) benzonitrile]
14 | ≤ 50 nM | C[C@@H]1CN(c2ccc(-c3cnc4c(-c5ccc(C#N)cc5)cccc4c3OC(F)F)cc2)C[C@H](C)O1 [Embodiment 145]
15 | ≤ 50 nM | COc1c(-c2ccc(N3CC(C)(C)C(O)C(C)(C)C3)cc2)cnc2c(-c3ccc(C#N)cc3)cccc12 [Embodiment 251]
16 | 1000 to 5000 nM | C[C@@H]1CN(c2ccc(-n3ccc4c(-c5ccc(C(F)(F)F)cc5)cccc4c3=O)cn2)C[C@H](C)O1 [Embodiment 71]
17 | 500 to 1000 nM | C[C@@H]1CN(c2ccc(-n3ccc4c(-c5ccc(C#N)cc5)cccc4c3=O)cn2)C[C@H](C)O1 [Embodiment 70, 4-(2-(6-(2,6-dimethylmorpholino-4-yl)pyridin-3-yl)-1-oxo-1,2-dihydroisoquinolin-5-yl)benzonitrile]
18 | 500 to 1000 nM | C[C@@H]1CN(c2ccc(-n3ccc4c(-c5ccc(C#N)cc5)cccc4c3=O)cc2Br)C[C@H](C)O1 [Embodiment 79, 4-(2-(3-bromo-4-((2S,6R)-2,6-dimethylmorpholino)phenyl)-1-oxo-1,2-dihydroisoquinolin-5-yl)benzonitrile]
19 | 100 to 500 nM | Cc1cn(-c2ccc(N3CC(C)N(S(C)(=O)=O)C(C)C3)cc2)c(=O)c2cccc(-c3ccc(C#N)cc3)c12 (stereo not shown) [Embodiment 31]
